Patent publication US9963452B2, “Methods, compounds, and compositions for inhibition of ROS” (AUGUSTA PHARMACEUTICALS INC., priority 2013, dated 2018)

How the values were obtained:
Assay type in all cases: cell-based
[1] = test system: U138 glioblastoma cell line; assay: In-vitro cell survival assay (Alamar blue), U138; details: U138, one day after compound addition
In short: (§1)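 Cells seeded at 2-5×10^3 per well, grown 2 days, then exposed to compound at 100, 10 or 1 uM (0.5% DMSO final) for one day. Alamar blue redox dye read as proliferation/viability, normalized to vehicle wells as percent decrease and converted to EC50.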

[2] = test system: U118 glioblastoma cell line; assay: In-vitro cell survival assay (Alamar blue), U118; details: U118, one day after compound addition
Procedure: Five tumor-derived cell lines were treated with the ROS inhibitor compounds and cell survival was monitored to determine the cancer prohibition effects of the compounds. The cell lines included HeLa, a cervical cancer cell line, and four glioblastoma cell lines U138, U87, LN18, and U118. The basic protocol for the in-vitro cell survival assay is the same for all five cell lines. In particular, the cells were seeded in 96-well plates at 2-5×10^3 cells/well (cell line dependent) in culture medium. The cells were grown for 2 days before the compounds were dissolved in DMSO and added to final concentrations of 100 uM, 10 uM, or 1 uM (DMSO final concentration 0.5%). The cell culture was then assayed one day after the addition of the compounds. The assay used Alamar blue as a redox-sensitive dye that interrogates mitochondrial fitness of cells, and these assays provided a readout for cell proliferation and viability. The raw values were normalized to an average of several vehicle control wells and are presented as percent decrease in proliferation/viability, which is converted to half maximal effective concentration (EC50) values.

[3] = test system: HeLa cervical cancer cell line; assay: In-vitro cell survival assay (Alamar blue), HeLa; details: one day after compound addition
In short: as §1

[4] = test system: LN18 glioblastoma cell line; assay: In-vitro cell survival assay (Alamar blue), LN18; details: LN18, one day after compound addition
In short: as §1

[5] = test system: U87 glioblastoma cell line; assay: In-vitro cell survival assay (Alamar blue), U87; details: U87, one day after compound addition
In short: as §1

Row | Compound | EC50 ([1]; 24 h) | EC50 ([2]; 24 h) | EC50 ([3]; Homo sapiens, 24 h) | EC50 ([4]; Homo sapiens, LN-18, 24 h) | EC50 ([5]; 24 h) | EC50 [1] | EC50 [2] | EC50 [3] | EC50 [4] | EC50 [5]
1 | O=C(NCCc1ccc(F)cc1)c1cccc(Nc2nccc(Nc3ccc4ncsc4c3)n2)c1 [drawing 372] | 8 µM | 9 µM | 5 µM | 6 µM | 10 µM | – | – | – | – | –
2 | O=C(c1ccccc1)n1nc(-c2ccco2)nc1NCc1ccc(Cl)cc1 [drawing 432] | > 100 µM | > 100 µM | > 100 µM | > 100 µM | > 100 µM | – | – | – | – | –
3 | O=C(NC[C@H]1Cc2cc(-c3cncnc3)cc(Cl)c2O1)c1cccc(Cn2cccn2)c1 | > 100 µM | > 100 µM | > 100 µM | > 100 µM | > 100 µM | – | – | – | – | –
4 | NS(=O)(=O)c1ccc(CCNC(=O)c2cc(-c3cccs3)nc3ccccc23)cc1 [drawing 358] | > 100 µM | 29 µM | > 100 µM | 25 µM | > 100 µM | – | – | – | – | –
5 | c1cc(Nc2cc(C3CC3)[nH]n2)nc(Nc2ccc(NCc3cc(C4OCCO4)c(C4OCCO4)s3)cc2)n1 [drawing 437] | 14 µM | 18 µM | 13 µM | 14 µM | 13 µM | – | – | – | – | –
6 | CC(=O)N[C@@H]1CCN(C(=O)c2cccc(Nc3cc(N(C)c4cccc(C)c4)ncn3)c2)C1 [drawing 378] | > 100 µM | > 100 µM | > 100 µM | > 100 µM | > 100 µM | – | – | – | – | –
7 | CCC(C)(C)NC(=O)c1cccc(Nc2nccc(Nc3ccc4ncsc4c3)n2)c1 [drawing 380] | 46 µM | 15 µM | 8 µM | 15 µM | 22 µM | – | – | – | – | –
8 | Nc1nc(Nc2ccc(C(=O)NCc3ccco3)cc2)cc(Nc2ccc3ncsc3c2)n1 [drawing 375] | > 100 µM | 27 µM | 44 µM | 18 µM | 32 µM | – | – | – | – | –
9 | O=C(NC[C@@H]1CCCO1)c1cccc(Nc2nccc(Nc3ccc4ncsc4c3)n2)c1 | > 100 µM | > 100 µM | 11 µM | 15 µM | 16 µM | – | – | – | – | –
10 | O=c1cc(Oc2ccccc2)c(-c2nc[nH]n2)nn1-c1ccccc1 [drawing 365] | – | – | – | – | – | > 100 µM | > 100 µM | > 100 µM | > 100 µM | 26 µM
11 | Clc1ccc(CNc2cc(-c3ccccc3)ncn2)cc1 [drawing 383] | 62 µM | 33 µM | > 100 µM | 62 µM | 38 µM | – | – | – | – | –
12 | Clc1ccc2nc(NCc3ccccn3)nc(-c3ccccc3)c2c1 [drawing 357] | > 100 µM | > 100 µM | > 100 µM | 16 µM | 71 µM | – | – | – | – | –
13 | O=C(NCCN1CCOCC1)c1cccc(Nc2nccc(Nc3ccc4ncsc4c3)n2)c1 [drawing 411] | > 100 µM | > 100 µM | 19 µM | > 100 µM | 18 µM | – | – | – | – | –
14 | O=C(NCc1cccs1)c1cccc(Nc2nccc(Nc3ccc4ncsc4c3)n2)c1 [drawing 410] | 26 µM | 23 µM | 9 µM | 11 µM | 25 µM | – | – | – | – | –
15 | CC(C)(C)c1cc(C(=O)NNc2cccc(Cl)c2)n(Cc2ccccc2)n1 [drawing 389] | > 100 µM | > 100 µM | > 100 µM | > 100 µM | 50 µM | – | – | – | – | –
16 | O=C(NCC1CCCCC1)c1cccc(Nc2nccc(Nc3ccc4ncsc4c3)n2)c1 [drawing 407] | > 100 µM | > 100 µM | > 100 µM | 87 µM | 33 µM | – | – | – | – | –
17 | O=C(c1cccc(Nc2nccc(Nc3ccc4ncsc4c3)n2)c1)N1CCCCCC1 [drawing 421] | > 100 µM | 81 µM | 9 µM | 9 µM | 25 µM | – | – | – | – | –
18 | O=C(NCc1ccc(F)cc1)c1cccc(Nc2nccc(Nc3ccc4ncsc4c3)n2)c1 [drawing 423] | 18 µM | 24 µM | 6 µM | 9 µM | 11 µM | – | – | – | – | –
